Assay results from patent US9498476B2, “Crystalline form of 6-[(4S)-2-methyl-4-(2-naphthyl)-1,2,3,4-tetrahydroisoquinolin-7-yl]pyridazin-3-amine” (Bristol-Myers Squibb Company, priority 2008, dated 2016).

Columns and labels:
Assay type in all cases: physicochemical
[1] = pH-Solubility profile (aqueous solubility)
[2] = Distribution coefficient (Log Do/b); conditions: pH 6.5
[3] = Solubility profile (USP definition) in solvents

Question: With `CN1Cc2cc(-c3ccc(N)nn3)ccc2[C@H](c2ccc3ccccc3c2)C1` [Form N-1, 6-[(4S)-1,2,3,4-tetrahydro-2-methyl-4-(2-naphthalenyl)-7-isoquinolinyl]-3-pyridazinamine] as the compound, how does the “Aqueous solubility (in words)” value [1] read?
Answer: high aqueous solubility

Question: And the “Distribution coefficient Log Do/b” value [2]?
Answer: 3.10

Question: And the “Solubility profile (USP definition)” value ([3]; acetone)?
Answer: slightly soluble: isopropanol, acetone, ethanol, methanol,

Question: And the “Solubility profile (USP definition)” value ([3]; acetonitrile)?
Answer: very slightly soluble: acetonitrile, ethyl acetate,

Question: And the “Solubility profile (USP definition)” value ([3]; dichloromethane)?
Answer: slightly soluble: isopropanol, acetone, ethanol, methanol,

Question: What about the “Solubility profile (USP definition)” value ([3]; ethanol) of the same compound?
Answer: slightly soluble: isopropanol, acetone, ethanol, methanol,

Question: And the “Solubility profile (USP definition)” value ([3]; ethyl acetate)?
Answer: very slightly soluble: acetonitrile, ethyl acetate,

Question: What about the “Solubility profile (USP definition)” value ([3]; isopropanol) of the same compound?
Answer: slightly soluble: isopropanol, acetone, ethanol, methanol,

Question: What about the “Solubility profile (USP definition)” value ([3]; methanol) of the same compound?
Answer: slightly soluble: isopropanol, acetone, ethanol, methanol,

Question: And the “Solubility profile (USP definition)” value ([3]; n-butanol)?
Answer: very slightly soluble: acetonitrile, ethyl acetate,

Question: And the “Solubility profile (USP definition)” value ([3]; propylene glycol)?
Answer: slightly soluble: isopropanol, acetone, ethanol, methanol,
